Literature values, collected in paper PMC9851200, “Multiparameter phenotypic screening for endogenous TFEB and TFE3 translocation identifies novel chemical series modulating lysosome function” (Autophagy, 2022).

What was measured:
Set-up in all cases: method as in original PKIS2 published data
[1] = biological target: T1, kinases (KINOMEscan panel) (Homo sapiens, UniProt O14920); details: cited from earlier work
T1 sequence (O14920 1-756): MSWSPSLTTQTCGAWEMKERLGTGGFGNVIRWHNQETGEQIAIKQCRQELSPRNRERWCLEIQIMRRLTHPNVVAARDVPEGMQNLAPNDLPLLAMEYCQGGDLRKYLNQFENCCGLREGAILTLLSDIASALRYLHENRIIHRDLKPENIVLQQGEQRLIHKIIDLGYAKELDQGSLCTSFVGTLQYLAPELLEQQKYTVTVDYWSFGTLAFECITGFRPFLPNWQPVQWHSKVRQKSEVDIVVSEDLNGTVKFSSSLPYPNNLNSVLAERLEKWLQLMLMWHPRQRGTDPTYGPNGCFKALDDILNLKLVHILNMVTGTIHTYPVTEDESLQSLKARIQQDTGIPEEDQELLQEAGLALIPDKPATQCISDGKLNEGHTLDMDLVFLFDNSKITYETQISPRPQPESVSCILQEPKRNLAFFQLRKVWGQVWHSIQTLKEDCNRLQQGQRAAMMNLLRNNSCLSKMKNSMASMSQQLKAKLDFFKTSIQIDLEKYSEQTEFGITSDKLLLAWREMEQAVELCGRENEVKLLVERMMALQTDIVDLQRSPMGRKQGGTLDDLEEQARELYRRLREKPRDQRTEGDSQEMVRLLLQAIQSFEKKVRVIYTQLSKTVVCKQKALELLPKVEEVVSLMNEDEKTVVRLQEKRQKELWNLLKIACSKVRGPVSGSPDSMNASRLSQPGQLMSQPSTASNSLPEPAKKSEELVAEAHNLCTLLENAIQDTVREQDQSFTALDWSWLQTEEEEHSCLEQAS

[2] = biological target: kinases (KINOMEscan panel) (Homo sapiens, UniProt P49759); details: kinase CLK1; Published KINOMEscan; ref original PKIS2 published data; cited from earlier work
kinases (KINOMEscan panel) (Homo sapiens, UniProt P49759), sequence (P49759 whole entry): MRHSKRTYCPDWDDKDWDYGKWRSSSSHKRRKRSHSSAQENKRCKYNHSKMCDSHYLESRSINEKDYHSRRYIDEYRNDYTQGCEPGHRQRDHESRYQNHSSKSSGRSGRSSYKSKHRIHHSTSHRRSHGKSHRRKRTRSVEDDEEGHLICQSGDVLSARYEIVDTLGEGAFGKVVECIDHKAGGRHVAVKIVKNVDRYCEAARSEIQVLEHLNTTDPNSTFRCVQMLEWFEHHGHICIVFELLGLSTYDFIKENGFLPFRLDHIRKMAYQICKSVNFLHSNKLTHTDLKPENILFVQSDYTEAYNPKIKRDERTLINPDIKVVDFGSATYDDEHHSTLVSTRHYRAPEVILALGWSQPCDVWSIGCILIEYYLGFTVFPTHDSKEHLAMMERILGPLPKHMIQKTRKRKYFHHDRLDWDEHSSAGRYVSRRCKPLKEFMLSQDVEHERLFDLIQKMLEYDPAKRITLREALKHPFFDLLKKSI

[3] = biological target: kinases (KINOMEscan panel) (Homo sapiens, UniProt P53350); details: PLK1; Published KINOMEscan; ref original PKIS2 published data; cited from earlier work
kinases (KINOMEscan panel) (Homo sapiens, UniProt P53350), sequence (P53350 whole entry): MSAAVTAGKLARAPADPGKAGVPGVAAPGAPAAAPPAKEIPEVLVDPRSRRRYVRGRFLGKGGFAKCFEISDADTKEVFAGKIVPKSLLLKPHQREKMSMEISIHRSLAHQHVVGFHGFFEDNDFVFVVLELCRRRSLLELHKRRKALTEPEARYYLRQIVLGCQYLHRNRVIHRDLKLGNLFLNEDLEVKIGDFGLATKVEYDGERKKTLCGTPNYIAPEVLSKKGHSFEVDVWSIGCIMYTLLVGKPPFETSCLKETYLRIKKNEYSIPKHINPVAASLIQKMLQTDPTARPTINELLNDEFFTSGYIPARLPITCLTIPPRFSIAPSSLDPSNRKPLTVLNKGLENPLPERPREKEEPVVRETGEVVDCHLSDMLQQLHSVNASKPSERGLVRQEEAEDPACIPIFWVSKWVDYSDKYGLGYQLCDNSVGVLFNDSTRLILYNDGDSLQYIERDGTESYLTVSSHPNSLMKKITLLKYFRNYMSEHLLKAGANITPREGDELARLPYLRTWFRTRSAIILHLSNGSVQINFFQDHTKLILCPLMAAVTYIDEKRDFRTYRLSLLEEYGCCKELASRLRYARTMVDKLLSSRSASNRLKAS

[4] = biological target: kinases (KINOMEscan panel) (Homo sapiens, UniProt Q86UE8); details: kinase TLK2; Published KINOMEscan; ref original PKIS2 published data; cited from earlier work
kinases (KINOMEscan panel) (Homo sapiens, UniProt Q86UE8), sequence (Q86UE8 whole entry): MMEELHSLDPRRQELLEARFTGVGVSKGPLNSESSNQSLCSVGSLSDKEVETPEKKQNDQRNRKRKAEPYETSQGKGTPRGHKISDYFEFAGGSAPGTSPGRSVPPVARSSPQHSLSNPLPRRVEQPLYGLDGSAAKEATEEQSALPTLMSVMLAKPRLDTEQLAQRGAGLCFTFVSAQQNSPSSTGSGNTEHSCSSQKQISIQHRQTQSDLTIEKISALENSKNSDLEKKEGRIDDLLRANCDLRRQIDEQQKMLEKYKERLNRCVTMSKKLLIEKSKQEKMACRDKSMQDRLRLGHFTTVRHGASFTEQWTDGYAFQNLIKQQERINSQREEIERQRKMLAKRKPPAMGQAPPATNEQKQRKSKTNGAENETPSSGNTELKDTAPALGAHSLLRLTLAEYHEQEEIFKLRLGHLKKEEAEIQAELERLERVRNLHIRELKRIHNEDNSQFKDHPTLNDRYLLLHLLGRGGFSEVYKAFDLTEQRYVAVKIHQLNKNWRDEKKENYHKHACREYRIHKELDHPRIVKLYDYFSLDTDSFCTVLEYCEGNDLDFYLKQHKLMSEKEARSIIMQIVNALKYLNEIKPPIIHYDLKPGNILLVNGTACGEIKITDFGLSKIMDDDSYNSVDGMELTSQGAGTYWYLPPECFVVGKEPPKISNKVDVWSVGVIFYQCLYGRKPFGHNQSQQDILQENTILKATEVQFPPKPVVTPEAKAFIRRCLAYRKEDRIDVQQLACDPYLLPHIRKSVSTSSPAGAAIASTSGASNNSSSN

[5] = biological target: T2, kinases (KINOMEscan panel) (Homo sapiens, UniProt Q8TD19); details: NEK9; Published KINOMEscan; ref original PKIS2 published data; cited from earlier work
T2 sequence (Q8TD19 1-979): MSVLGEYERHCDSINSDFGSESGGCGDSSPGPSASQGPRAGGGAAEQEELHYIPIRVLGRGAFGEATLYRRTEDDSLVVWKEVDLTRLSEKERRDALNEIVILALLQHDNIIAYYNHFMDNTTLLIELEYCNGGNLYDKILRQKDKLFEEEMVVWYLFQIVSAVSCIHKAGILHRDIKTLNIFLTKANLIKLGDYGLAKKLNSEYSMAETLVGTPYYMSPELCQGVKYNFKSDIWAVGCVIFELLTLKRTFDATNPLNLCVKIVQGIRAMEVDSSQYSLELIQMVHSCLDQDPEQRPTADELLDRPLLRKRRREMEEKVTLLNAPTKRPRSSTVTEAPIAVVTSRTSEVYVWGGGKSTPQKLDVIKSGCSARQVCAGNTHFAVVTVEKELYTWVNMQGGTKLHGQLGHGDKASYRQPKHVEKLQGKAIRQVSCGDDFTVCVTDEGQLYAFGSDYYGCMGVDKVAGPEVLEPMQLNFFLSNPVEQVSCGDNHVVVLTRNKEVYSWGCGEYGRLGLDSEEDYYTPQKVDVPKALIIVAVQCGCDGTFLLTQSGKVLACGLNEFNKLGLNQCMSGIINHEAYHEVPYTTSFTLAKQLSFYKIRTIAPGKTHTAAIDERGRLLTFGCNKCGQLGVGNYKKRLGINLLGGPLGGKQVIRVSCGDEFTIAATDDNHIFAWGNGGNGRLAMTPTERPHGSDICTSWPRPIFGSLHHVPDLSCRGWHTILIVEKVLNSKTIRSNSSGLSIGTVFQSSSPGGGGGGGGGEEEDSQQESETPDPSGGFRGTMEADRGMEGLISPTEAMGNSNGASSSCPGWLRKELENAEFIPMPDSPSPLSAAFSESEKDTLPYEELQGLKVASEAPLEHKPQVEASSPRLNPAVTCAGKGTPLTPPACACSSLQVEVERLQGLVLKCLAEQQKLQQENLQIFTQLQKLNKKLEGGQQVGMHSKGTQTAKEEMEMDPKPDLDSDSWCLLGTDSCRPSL

[6] = biological target: T3, kinases (KINOMEscan panel) (Homo sapiens, UniProt Q99759); details: MAP3K3; Published KINOMEscan; ref original PKIS2 published data; cited from earlier work
T3 sequence (Q99759 1-626): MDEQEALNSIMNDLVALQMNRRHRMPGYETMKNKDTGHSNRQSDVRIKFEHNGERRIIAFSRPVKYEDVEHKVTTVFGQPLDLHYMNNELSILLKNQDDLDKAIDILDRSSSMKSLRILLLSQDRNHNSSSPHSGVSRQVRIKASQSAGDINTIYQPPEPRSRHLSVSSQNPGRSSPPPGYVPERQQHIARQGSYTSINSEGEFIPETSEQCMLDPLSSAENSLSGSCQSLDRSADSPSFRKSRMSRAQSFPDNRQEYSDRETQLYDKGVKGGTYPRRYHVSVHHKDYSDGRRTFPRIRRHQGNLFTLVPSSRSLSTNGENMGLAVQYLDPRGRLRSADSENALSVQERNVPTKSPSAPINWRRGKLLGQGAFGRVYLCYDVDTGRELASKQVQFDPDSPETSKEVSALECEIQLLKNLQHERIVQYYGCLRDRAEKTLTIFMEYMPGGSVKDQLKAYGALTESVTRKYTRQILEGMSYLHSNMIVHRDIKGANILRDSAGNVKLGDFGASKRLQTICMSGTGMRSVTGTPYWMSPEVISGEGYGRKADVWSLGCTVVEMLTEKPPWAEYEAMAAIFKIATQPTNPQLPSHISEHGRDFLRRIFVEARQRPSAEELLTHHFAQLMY

[7] = biological target: kinases (KINOMEscan panel) (Homo sapiens, UniProt Q9P0L2); details: Published KINOMEscan; ref original PKIS2 published data; cited from earlier work
kinases (KINOMEscan panel) (Homo sapiens, UniProt Q9P0L2), sequence (Q9P0L2 whole entry): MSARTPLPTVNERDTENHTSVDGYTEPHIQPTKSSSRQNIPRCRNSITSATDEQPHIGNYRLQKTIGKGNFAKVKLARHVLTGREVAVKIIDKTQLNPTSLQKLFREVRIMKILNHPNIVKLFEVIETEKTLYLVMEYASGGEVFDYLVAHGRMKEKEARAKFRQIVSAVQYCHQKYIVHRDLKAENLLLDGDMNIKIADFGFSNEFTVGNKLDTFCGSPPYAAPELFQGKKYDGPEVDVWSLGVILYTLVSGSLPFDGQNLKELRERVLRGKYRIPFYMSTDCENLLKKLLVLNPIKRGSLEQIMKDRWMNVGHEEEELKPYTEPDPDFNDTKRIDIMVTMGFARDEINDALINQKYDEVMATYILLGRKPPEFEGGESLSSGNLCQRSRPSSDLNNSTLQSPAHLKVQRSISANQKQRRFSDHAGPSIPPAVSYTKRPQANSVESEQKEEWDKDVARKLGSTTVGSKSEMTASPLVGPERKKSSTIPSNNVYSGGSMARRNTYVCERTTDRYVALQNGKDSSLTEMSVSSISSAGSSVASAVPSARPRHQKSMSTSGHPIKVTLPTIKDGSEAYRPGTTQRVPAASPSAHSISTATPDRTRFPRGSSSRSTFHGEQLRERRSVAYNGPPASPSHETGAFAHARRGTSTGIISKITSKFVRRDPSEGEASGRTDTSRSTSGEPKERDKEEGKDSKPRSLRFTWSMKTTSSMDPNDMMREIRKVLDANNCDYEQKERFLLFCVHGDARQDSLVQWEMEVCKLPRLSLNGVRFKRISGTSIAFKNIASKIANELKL

Cc1cccc(-c2nc(Nc3ccncc3)c3ccccc3n2)n1 [NK215]
KINOMEscan IKBKB/IKK-beta [1]: 0
KINOMEscan CLK1 [2]: 10
KINOMEscan PLK1 [3]: 6
KINOMEscan TLK2 [4]: 0
KINOMEscan NEK9 [5]: 0
KINOMEscan MAP3K3 [6]: 0
KINOMEscan MARK1 [7]: 0
